Reference: patent publication US10988523B2, “Modified lipidated Relaxin B chain peptides and their therapeutic use” (Sanofi, priority 2018, dated 2021)
≈ marks a conversion by molar mass, not a printed value. Where two headings read alike, the source gives them in different places. *1 amine or outer side, *2 acyl side, *3 side chain or, on linkers, in order; H or OH if unused. Where a SMILES comes first, the peptide text is derived from it. Side-chain parts run from the residue outwards. [ ]: non-standard residue; d: D form. The star is where a group is joined. X2 = CCCCCCCCCCCCCCCCCC(=O)N[C@@H](CCC(=O)N[C@@H](CCC(=O)N[C@@H](CCC(=O)NCCCC[C@H](NC(=O)COCC(=O)NCCCOCCOCCOCCCNC(=O)COCC(=O)NCCCOCCOCCOCCCNC(=O)COCC(=O)NCCCOCCOCCOCCCN*)C(N)=O)C(=O)O)C(=O)O)C(=O)O; PEG12 = NCCOCCOCCOCCOCCOCCOCCOCCOCCOCCOCCOCCOCCC(=O)O; γGlu = O=C(O)[C@H](CCC(=O)[*:2])N[*:1]; Stearoyl = CCCCCCCCCCCCCCCCCC(=O)*; Palmitoyl = CCCCCCCCCCCCCCCC(=O)*; Nle = CCCC[C@H](N)C(=O)O; AEEA = NCCOCCOCC(=O)O; Aib = CC(C)(N)C(=O)O

Columns and labels:
[1] = Pharmacokinetic (PK) determination after i.v. or s.c. administration to rats; assay type: in vivo, Sprague Dawley rats; conditions: Sprague Dawley, Rat PK; for C0 / half-life: iv, 1 mg/kg i.v.; for C0: extrapolated plasma concentration at t=0, read-out: C0; for half-life / Cmax / Tmax / bioavailability: plasma; for half-life: read-out: T½ (converted); for Cmax / Tmax: sc, 3 mg/kg s.c.; for bioavailability: subcutaneous, 3 mg/kg s.c. vs 1 mg/kg i.v., dose-corrected AUC ratio
How it was run: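 Non-compartmental analysis of plasma LC/MS data (protein precipitation, BLQ taken as zero) gave T½, C0 (i.v.), Cmax/Tmax (s.c.) and F% from dose-corrected AUCs. Dosing: 3 mg/kg s.c. or 1 mg/kg i.v. in PBS to Sprague Dawley rats, purity- and salt-corrected.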

[2] = Solubility testing of peptides in buffer; assay type: physicochemical
Procedure: Prior to the testing of solubility of a peptide batch, its purity (HPLC-UV) was determined.
Acetate Buffer 50 mM pH4.5: 0.75 g […], 3H2O (Sigma 57545)+0.35 ml CH3CO2H 100% solution dissolved in Millipore water, adjusted to pH with diluted (1:1) CH3CO2H and diluted to 250 ml with Millipore water.
In a 4 ml Ependorph vial, an accurately weighed sample of compound was diluted in study media to obtain target concentration of 2, 6 or 10 mg/ml of pure compound. The sample vials were shacked (rock 'roll shaker) for ˜19 h. 3004, Aliquots ( ) were filtered through a Millipore “Solvinert” plate (0.45 μm—PTFE hydrophilic).
pH was measured with a micro electrode
Waters Acquity UPLC System with DAD detector
Column: Waters Peptide Column CSH C18 (130 Å; 1.7 μm; 50*2.1 mm)
Column temperature: 60° C.
Full loop (about 5 μL)—overfill factor 5
Weak et Strong wash: H2O/ACN (75/25; V/V); Seal wash: H2O/IsOH (95/5; V/V). Mobile phase:
Solvent A: 0.05% TFA in H2O; Solvent B: 0.035% TFA in CH3CN
Gradient: from 0 to 12 min B=2% to 60%, from 12 to 14 min B=60% to 100%. Column washing 100% B 1 min, column equilibration 2% B 2.5 min.
UV detector: wavelength: 220 nm.

RXFP1 = biological target: T1, RXFP1 (Homo sapiens, UniProt Q9HBX9); experiment: OVCAR5 cAMP assay (HTRF), RXFP1 agonist activity; assay type: cell-based; conditions: for EC50: OVCAR5 cells, cAMP HTRF, read-out: EC50 (nM), OVCAR 5 cells (cAMP); for Emax: OVCAR-5, maximal cAMP relative to H2-relaxin maximum (100%), read-out: EMax, OVCAR 5 cells (cAMP)
T1 construct: OVCAR5 cells expressing endogenous RXFP1; endogenous in cells; host or cells: OVCAR5 cells
T1 sequence (Q9HBX9 1-757): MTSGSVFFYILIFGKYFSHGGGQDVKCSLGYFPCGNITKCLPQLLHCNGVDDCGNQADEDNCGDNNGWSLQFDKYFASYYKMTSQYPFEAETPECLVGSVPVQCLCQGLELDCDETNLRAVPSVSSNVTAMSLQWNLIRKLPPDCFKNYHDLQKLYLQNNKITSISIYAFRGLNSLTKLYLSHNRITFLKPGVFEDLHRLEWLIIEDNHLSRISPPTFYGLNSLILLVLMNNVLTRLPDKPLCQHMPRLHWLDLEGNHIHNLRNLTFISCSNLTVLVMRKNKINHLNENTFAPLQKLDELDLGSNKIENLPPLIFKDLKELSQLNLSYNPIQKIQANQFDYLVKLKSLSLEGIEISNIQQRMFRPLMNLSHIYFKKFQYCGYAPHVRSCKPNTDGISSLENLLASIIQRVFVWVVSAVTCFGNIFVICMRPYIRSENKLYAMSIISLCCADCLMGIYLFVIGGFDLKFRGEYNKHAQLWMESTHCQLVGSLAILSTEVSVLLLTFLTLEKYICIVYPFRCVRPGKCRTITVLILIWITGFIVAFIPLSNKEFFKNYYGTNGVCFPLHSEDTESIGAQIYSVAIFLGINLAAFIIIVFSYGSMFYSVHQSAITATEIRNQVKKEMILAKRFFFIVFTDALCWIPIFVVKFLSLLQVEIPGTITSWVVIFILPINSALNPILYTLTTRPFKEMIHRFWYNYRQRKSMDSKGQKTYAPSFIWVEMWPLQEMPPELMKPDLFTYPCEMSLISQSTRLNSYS
How it was run: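 cAMP accumulation readout: after 1 mM IBMX for 40 min, endogenous-RXFP1 OVCAR5 cells got rising peptide concentrations without FCS, 30 min, 37° C, then lysis with HTRF cAMP reagents. Nonlinear regression gave EC50; Emax expressed relative to H2-relaxin maximum, same occasion.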

[3] = acetate buffer, pH 4.5, read-out: Solubility Acetate buffer pH 4.5
[4] = phosphate buffer, pH 7.4, read-out: Solubility phosphate buffer pH 7.4

| Compound | C0 [1] | half-life [1] | Cmax [1] | Tmax [1] | bioavailability [1] | solubility ([2]; phosphate buffer 50 mM pH 7.4, target solubility 2.0 mg/ml, read-out: Solubility phosphate buffer pH 7.4) | EC50 (RXFP1) | Emax (RXFP1) | solubility [2, 3] | solubility [2, 4] |
| --- | --- | --- | --- | --- | --- | --- | --- | --- | --- | --- |
| CCCCCCCCCCCCCCCCCC(=O)N[C@@H](CCC(=O)N[C@@H](CCC(=O)N[C@@H](CCC(=O)NCCCC[C@H](NC(=O)COCCOCCNC(=O)COCCOCCNC(=O)COCCOCCNC(=O)[C@H](CCCCNC(C)=O)NC(=O)[C@H](CCCCN)NC(=O)[C@H](CCCNC(=N)N)NC(=O)C(C)(C)NC(=O)[C@H](CO)NC(=O)[C@H](Cc1c[nH]c2ccccc12)NC(=O)[C@@H](NC(=O)[C@H](CO)NC(=O)[C@H](CCCC)NC(=O)CNC(=O)[C@H](CCC(=O)O)NC(=O)C(C)(C)NC(=O)C(C)(C)NC(=O)[C@@H](NC(=O)[C@H](CCCCNC(C)=O)NC(=O)[C@H](C)NC(=O)[C@H](CCCNC(=N)N)NC(=O)[C@@H](NC(=O)[C@H](CCCCN)NC(=O)[C@H](CCC(=O)O)NC(=O)[C@H](CCCNC(=N)N)NC(=O)CNC(=O)[C@H](CCC(=O)O)NC(=O)[C@H](CC(C)C)NC(C)=O)C(C)C)[C@@H](C)CC)[C@@H](C)O)C(N)=O)C(=O)O)C(=O)O)C(=O)O [compound 14] (Ac-LEGREKVRAK(Ac)I[Aib][Aib]EG[Nle]STWS[Aib]RKK(Ac)[AEEA][AEEA][AEEA]K([γGlu-γGlu-γGlu-Stearoyl])-NH2) | 4000 nM | 3.4 h | 1500 nM | 6 h | 93% | > 2100 µg/mL | 0.04 nM | 88% | – | – |
| CCCCCCCCCCCCCCCCCC(=O)N[C@@H](CCC(=O)N[C@@H](CCC(=O)N[C@@H](CCC(=O)NCCCC[C@H](NC(=O)COCC(=O)NCCCOCCOCCOCCCNC(=O)COCC(=O)NCCCOCCOCCOCCCNC(=O)COCC(=O)NCCCOCCOCCOCCCNC(=O)[C@H](CCCCNC(C)=O)NC(=O)[C@H](CCCCN)NC(=O)[C@H](CCCNC(=N)N)NC(=O)C(C)(C)NC(=O)[C@H](CO)NC(=O)[C@H](Cc1c[nH]c2ccccc12)NC(=O)[C@@H](NC(=O)[C@H](CO)NC(=O)[C@H](CCCC)NC(=O)CNC(=O)[C@H](CCC(=O)O)NC(=O)C(C)(C)NC(=O)C(C)(C)NC(=O)[C@@H](NC(=O)[C@H](CCCCNC(C)=O)NC(=O)[C@H](C)NC(=O)[C@H](CCCNC(=N)N)NC(=O)[C@@H](NC(=O)[C@H](CCCCN)NC(=O)[C@H](CCC(=O)O)NC(=O)[C@H](CCCNC(=N)N)NC(=O)CNC(=O)[C@H](CCC(=O)O)NC(=O)[C@H](CC(C)C)NC(C)=O)C(C)C)[C@@H](C)CC)[C@@H](C)O)C(N)=O)C(=O)O)C(=O)O)C(=O)O [compound 20] (Ac-LEGREKVRAK(Ac)I[Aib][Aib]EG[Nle]STWS[Aib]RKK(Ac)-X2) | 4000 nM | 3.96 h | 3000 nM | 8 h | 73% | – | – | 88% | 5600 µg/mL (≈ 1220 µM) | 5600 µg/mL (≈ 1220 µM) |
| CCCCCCCCCCCCCCCC(=O)N[C@@H](CCC(=O)N[C@@H](CCC(=O)N[C@@H](CCC(=O)NCCCC[C@H](NC(=O)CCOCCOCCOCCOCCOCCOCCOCCOCCOCCOCCOCCOCCNC(=O)[C@H](CCCCN)NC(=O)[C@H](CCCNC(=N)N)NC(=O)C(C)(C)NC(=O)[C@H](CO)NC(=O)[C@H](Cc1c[nH]c2ccccc12)NC(=O)[C@@H](NC(=O)[C@H](CO)NC(=O)[C@H](CCSC)NC(=O)CNC(=O)[C@H](CCC(=O)O)NC(=O)C(C)(C)NC(=O)C(C)(C)NC(=O)[C@@H](NC(=O)[C@H](CCC(N)=O)NC(=O)[C@H](C)NC(=O)[C@H](CCCNC(=N)N)NC(=O)[C@@H](NC(=O)[C@H](CCCCN)NC(=O)[C@H](CCC(=O)O)NC(=O)[C@H](CCCNC(=N)N)NC(=O)CNC(=O)[C@H](CCC(=O)O)NC(=O)[C@H](CC(C)C)NC(C)=O)C(C)C)[C@@H](C)CC)[C@@H](C)O)C(N)=O)C(=O)O)C(=O)O)C(=O)O [compound 23] (Ac-LEGREKVRAQI[Aib][Aib]EGMSTWS[Aib]RK[PEG12]K([γGlu-γGlu-γGlu-Palmitoyl])-NH2) | 2900 nM | 8.96 h | 1700 nM | 6 h | 84% | – | – | 89% | 7000 µg/mL (≈ 1740 µM) | 7000 µg/mL (≈ 1740 µM) |
| CCCCCCCCCCCCCCCCCC(=O)N[C@@H](CCC(=O)N[C@@H](CCC(=O)N[C@@H](CCC(=O)NCCCC[C@H](NC(=O)CCOCCOCCOCCOCCOCCOCCOCCOCCOCCOCCOCCOCCNC(=O)[C@H](CCCCN)NC(=O)[C@H](CCCNC(=N)N)NC(=O)C(C)(C)NC(=O)[C@H](CO)NC(=O)[C@H](Cc1c[nH]c2ccccc12)NC(=O)[C@@H](NC(=O)[C@H](CO)NC(=O)[C@H](CCCC)NC(=O)CNC(=O)[C@H](CCC(=O)O)NC(=O)C(C)(C)NC(=O)C(C)(C)NC(=O)[C@@H](NC(=O)[C@H](CCC(N)=O)NC(=O)[C@H](C)NC(=O)[C@H](CCCNC(=N)N)NC(=O)[C@@H](NC(=O)[C@H](CCCCN)NC(=O)[C@H](CCC(=O)O)NC(=O)[C@H](CCCNC(=N)N)NC(=O)CNC(=O)[C@H](CCC(=O)O)NC(=O)[C@H](CC(C)C)NC(C)=O)C(C)C)[C@@H](C)CC)[C@@H](C)O)C(N)=O)C(=O)O)C(=O)O)C(=O)O [compound 30] (Ac-LEGREKVRAQI[Aib][Aib]EG[Nle]STWS[Aib]RK[PEG12]K([γGlu-γGlu-γGlu-Stearoyl])-NH2) | 2200 nM | 4.8 h | 600 nM | 4 h | 105% | – | – | 89% | 7000 µg/mL (≈ 1740 µM) | 7000 µg/mL (≈ 1740 µM) |
| CCCCCCCCCCCCCCCC(=O)N[C@@H](CCC(=O)NCCCC[C@H](NC(=O)CC[C@H](NC(=O)CC[C@H](NC(=O)COCCOCCNC(=O)COCCOCCNC(=O)COCCOCCNC(=O)[C@H](CCCCN)NC(=O)[C@H](CCCCN)NC(=O)[C@H](CCCCN)NC(=O)[C@H](CCCNC(=N)N)NC(=O)C(C)(C)NC(=O)[C@H](CO)NC(=O)[C@H](Cc1c[nH]c2ccccc12)NC(=O)[C@@H](NC(=O)[C@H](CO)NC(=O)[C@H](CCCC)NC(=O)CNC(=O)[C@H](CCC(=O)O)NC(=O)C(C)(C)NC(=O)C(C)(C)NC(=O)[C@@H](NC(=O)[C@H](CCC(N)=O)NC(=O)[C@H](C)NC(=O)[C@H](CCCNC(=N)N)NC(=O)[C@@H](NC(=O)[C@H](CCCCN)NC(=O)[C@H](CCC(=O)O)NC(=O)[C@H](CCCNC(=N)N)NC(=O)CNC(=O)[C@H](CCC(=O)O)NC(=O)[C@H](CC(C)C)NC(C)=O)C(C)C)[C@@H](C)CC)[C@@H](C)O)C(=O)O)C(=O)O)C(N)=O)C(=O)O [compound 109] (Ac-LEGREKVRAQI[Aib][Aib]EG[Nle]STWS[Aib]RKKK[AEEA][AEEA][AEEA][γGlu][γGlu]K([γGlu-Palmitoyl])-NH2) | – | – | – | – | – | – | 0.15 nM | 98% | 5900 µg/mL (≈ 1440 µM) | 5900 µg/mL (≈ 1440 µM) |
